≈ marks a conversion by molar mass, not a printed value. Where a SMILES comes first, the peptide text is derived from it. Bridges are numbered along the chain shown (N, C = ends). [ ]: non-standard residue; d: D form. The star is where a group is joined. X41 = O=C(c1cc2cc(F)c(F)cc2[nH]1)*; X47 = O=C(c1cc2cc(Cl)ccc2[nH]1)*; X6 = Cn1c(C(=O)*)cc2cc(Cl)ccc21; X58 = Cn1cc(CC(=O)*)c2ccccc21; X22 = Cn1c(C(=O)*)cc2ccccc21; X56 = Cn1cc(C(=O)*)c2ccccc21; X27 = O=C(c1sc2ccccc2c1Cl)*; Dab = NCC[C@H](N)C(=O)O; Abu = CC[C@H](N)C(=O)O; Dap = NC[C@H](N)C(=O)O
Tests used:
Type in all cases: cell-based
[1] = system: Acinetobacter baumannii ATCC 17978; settings: ATCC 17978
Summary of the method: (§1)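 Antibacterial activity is given as MIC from microdilution in CAMHB under the CLSI M100-S24 standard. P. aeruginosa FADDI-PA022 and A. baumannii FADDI-AB034 are multidrug-resistant clinical isolates, while ATCC 17978 is a reference strain.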

[2] = system: Pseudomonas aeruginosa ATCC 27853; settings: ATCC 27853
Summary of the method: as §1

[3] = system: Pseudomonas aeruginosa FADDI-PA01; settings: FADDI-
Summary of the method: as §1

[4] = system: Enterobacter cloacae FADDI-EC001; settings: FADDI-EC001
Summary of the method: (§2)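 Following CLSI procedure M100-S24, minimum inhibitory concentrations of trifluoroacetate lipopeptides are measured in cation-adjusted Mueller-Hinton medium by broth microdilution, alongside a polymyxin B sulphate control.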

[5] = system: Enterobacter cloacae FADDI-EC003; settings: FADDI-EC003
Summary of the method: as §1

[6] = system: Klebsiella pneumoniae Kp BM1; settings: Kp BM1
Summary of the method: as §2

[7] = system: Enterobacter cloacae FADDI-EC006; settings: FADDI-EC006
Summary of the method: as §1

[8] = system: Klebsiella pneumoniae FADDI-KP032; settings: FADDI-KP032
Summary of the method: as §1

[9] = system: Pseudomonas aeruginosa FADDI-PA022; settings: FADDI-PA022
Summary of the method: as §1

[10] = system: Pseudomonas aeruginosa FADDI-PA038; settings: FADDI-PA038
Summary of the method: as §1

[11] = system: Acinetobacter baumannii FADDI-AB034; settings: FADDI-AB034
Summary of the method: as §1

[12] = system: Klebsiella pneumoniae FADDI-KP022; settings: FADDI-KP022
Summary of the method: as §1

[13] = system: Acinetobacter baumannii FADDI-AB030; assay: microbe, parasite or virus in culture; settings: FADDI-AB030
Summary of the method: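 Broth microdilution MIC in cation-adjusted Mueller-Hinton broth per CLSI M100-S24; lipopeptides tested as TFA salts. FADDI-AB030 is a multidrug-resistant clinical isolate. Polymyxin B sulphate served as control.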

Structure (SMILES) | Minimum inhibitory concentration [1] | Minimum inhibitory concentration [2] | Minimum inhibitory concentration [3] | Minimum inhibitory concentration [4] | Minimum inhibitory concentration [5] | Minimum inhibitory concentration [6] | Minimum inhibitory concentration [7] | Minimum inhibitory concentration [8] | Minimum inhibitory concentration [9] | Minimum inhibitory concentration [10] | Minimum inhibitory concentration [11] | Minimum inhibitory concentration [12] | Minimum inhibitory concentration [13]
CC[C@@H]1NC(=O)[C@@H](CC(C)C)NC(=O)[C@H](CCN)NC(=O)[C@@H](NC(=O)[C@H](CN)NC(=O)[C@@H](NC(=O)[C@H](CCN)NC(=O)c2cc3cc(Cl)ccc3n2C)[C@@H](C)O)CCNC(=O)[C@H]([C@@H](C)O)NC(=O)[C@H](CCN)NC(=O)[C@H](CCN)NC1=O [Compound 58] (X6-[Dab]T[Dap][Dab][Dab][dL][Abu][Dab][Dab]T; lactam 4-C) | 0.25 µg/mL (≈ 0.212 µM) | 0.5 µg/mL (≈ 0.424 µM) | 0.5 µg/mL (≈ 0.424 µM) | 1 µg/mL (≈ 0.848 µM) | <0.125 µg/mL | 0.25 µg/mL (≈ 0.212 µM) | 0.5 µg/mL (≈ 0.424 µM) | 0.5 µg/mL (≈ 0.424 µM) | 0.5 µg/mL (≈ 0.424 µM) | 2 µg/mL (≈ 1.7 µM) | 0.5 µg/mL (≈ 0.424 µM) | <0.125 µg/mL | 0.25 µg/mL (≈ 0.212 µM)
CC[C@@H]1NC(=O)[C@@H](CC(C)C)NC(=O)[C@H](CCN)NC(=O)[C@@H](NC(=O)[C@H](CN)NC(=O)[C@@H](NC(=O)[C@H](CCN)NC(=O)c2cc3cc(Cl)ccc3[nH]2)[C@@H](C)O)CCNC(=O)[C@H]([C@@H](C)O)NC(=O)[C@H](CCN)NC(=O)[C@H](CCN)NC1=O [Compound 59] (X47-[Dab]T[Dap][Dab][Dab][dL][Abu][Dab][Dab]T; lactam 4-C) | 0.5 µg/mL (≈ 0.429 µM) | 0.5 µg/mL (≈ 0.429 µM) | 0.25 µg/mL (≈ 0.215 µM) | 0.25 µg/mL (≈ 0.215 µM) | 0.25 µg/mL (≈ 0.215 µM) | 0.5 µg/mL (≈ 0.429 µM) | 0.5 µg/mL (≈ 0.429 µM) | 0.25 µg/mL (≈ 0.215 µM) | 0.5 µg/mL (≈ 0.429 µM) | 1 µg/mL (≈ 0.859 µM) | <0.125 µg/mL | <0.125 µg/mL | 0.5 µg/mL (≈ 0.429 µM)
CC[C@@H]1NC(=O)[C@@H](CC(C)C)NC(=O)[C@H](CCN)NC(=O)[C@@H](NC(=O)[C@H](CN)NC(=O)[C@@H](NC(=O)[C@H](CCN)NC(=O)c2cc3cc(F)c(F)cc3[nH]2)[C@@H](C)O)CCNC(=O)[C@H]([C@@H](C)O)NC(=O)[C@H](CCN)NC(=O)[C@H](CCN)NC1=O [Compound 60] (X41-[Dab]T[Dap][Dab][Dab][dL][Abu][Dab][Dab]T; lactam 4-C) | 1 µg/mL (≈ 0.857 µM) | 0.5 µg/mL (≈ 0.429 µM) | 0.5 µg/mL (≈ 0.429 µM) | 0.25 µg/mL (≈ 0.214 µM) | 0.25 µg/mL (≈ 0.214 µM) | 0.5 µg/mL (≈ 0.429 µM) | 1 µg/mL (≈ 0.857 µM) | 0.5 µg/mL (≈ 0.429 µM) | 0.5 µg/mL (≈ 0.429 µM) | 1 µg/mL (≈ 0.857 µM) | 0.5 µg/mL (≈ 0.429 µM) | 0.5 µg/mL (≈ 0.429 µM) | 0.5 µg/mL (≈ 0.429 µM)
CC[C@@H]1NC(=O)[C@@H](CC(C)C)NC(=O)[C@H](CCN)NC(=O)[C@@H](NC(=O)[C@H](CN)NC(=O)[C@@H](NC(=O)[C@H](CCN)NC(=O)c2sc3ccccc3c2Cl)[C@@H](C)O)CCNC(=O)[C@H]([C@@H](C)O)NC(=O)[C@H](CCN)NC(=O)[C@H](CCN)NC1=O [Compound 61] (X27-[Dab]T[Dap][Dab][Dab][dL][Abu][Dab][Dab]T; lactam 4-C) | <0.125 µg/mL | 0.25 µg/mL (≈ 0.212 µM) | <0.125 µg/mL | 0.25 µg/mL (≈ 0.212 µM) | <0.125 µg/mL | 0.25 µg/mL (≈ 0.212 µM) | <0.125 µg/mL | <0.125 µg/mL | 0.25 µg/mL (≈ 0.212 µM) | 0.25 µg/mL (≈ 0.212 µM) | <0.125 µg/mL | <0.125 µg/mL | <0.125 µg/mL
CC[C@@H]1NC(=O)[C@@H](CC(C)C)NC(=O)[C@H](CCN)NC(=O)[C@@H](NC(=O)[C@H](CN)NC(=O)[C@@H](NC(=O)[C@H](CCN)NC(=O)Cc2cn(C)c3ccccc23)[C@@H](C)O)CCNC(=O)[C@H]([C@@H](C)O)NC(=O)[C@H](CCN)NC(=O)[C@H](CCN)NC1=O [Compound 62] (X58-[Dab]T[Dap][Dab][Dab][dL][Abu][Dab][Dab]T; lactam 4-C) | 0.5 µg/mL (≈ 0.432 µM) | 0.5 µg/mL (≈ 0.432 µM) | 1 µg/mL (≈ 0.863 µM) | <0.125 µg/mL | 0.25 µg/mL (≈ 0.216 µM) | 0.25 µg/mL (≈ 0.216 µM) | 0.5 µg/mL (≈ 0.432 µM) | <0.125 µg/mL | 0.5 µg/mL (≈ 0.432 µM) | 0.5 µg/mL (≈ 0.432 µM) | 0.5 µg/mL (≈ 0.432 µM) | <0.125 µg/mL | 0.5 µg/mL (≈ 0.432 µM)
CC[C@@H]1NC(=O)[C@@H](CC(C)C)NC(=O)[C@H](CCN)NC(=O)[C@@H](NC(=O)[C@H](CN)NC(=O)[C@@H](NC(=O)[C@H](CCN)NC(=O)c2cn(C)c3ccccc23)[C@@H](C)O)CCNC(=O)[C@H]([C@@H](C)O)NC(=O)[C@H](CCN)NC(=O)[C@H](CCN)NC1=O [Compound 63] (X56-[Dab]T[Dap][Dab][Dab][dL][Abu][Dab][Dab]T; lactam 4-C) | 1 µg/mL (≈ 0.874 µM) | 0.5 µg/mL (≈ 0.437 µM) | <0.125 µg/mL | <0.125 µg/mL | 2 µg/mL (≈ 1.75 µM) | <0.125 µg/mL | 2 µg/mL (≈ 1.75 µM) | <0.125 µg/mL | 0.25 µg/mL (≈ 0.218 µM) | 0.5 µg/mL (≈ 0.437 µM) | 1 µg/mL (≈ 0.874 µM) | <0.125 µg/mL | 0.5 µg/mL (≈ 0.437 µM)
CC(C)C[C@H]1NC(=O)[C@H](CCN)NC(=O)[C@@H](NC(=O)[C@H](CN)NC(=O)[C@@H](NC(=O)[C@H](CCN)NC(=O)c2cc3ccccc3n2C)[C@@H](C)O)CCNC(=O)[C@H]([C@@H](C)O)NC(=O)[C@H](CCN)NC(=O)[C@H](CCN)NC(=O)[C@H]([C@@H](C)O)NC1=O [Compound 64] (X22-[Dab]T[Dap][Dab][Dab][dL]T[Dab][Dab]T; lactam 4-C) | 2 µg/mL (≈ 1.72 µM) | 0.5 µg/mL (≈ 0.431 µM) | 0.5 µg/mL (≈ 0.431 µM) | 1 µg/mL (≈ 0.862 µM) | 1 µg/mL (≈ 0.862 µM) | 0.5 µg/mL (≈ 0.431 µM) | 2 µg/mL (≈ 1.72 µM) | 0.5 µg/mL (≈ 0.431 µM) | 0.25 µg/mL (≈ 0.215 µM) | 1 µg/mL (≈ 0.862 µM) | 1 µg/mL (≈ 0.862 µM) | 0.25 µg/mL (≈ 0.215 µM) | 1 µg/mL (≈ 0.862 µM)

— patent publication US11225505B2, “Antimicrobial polymyxin derivative compounds” (MONASH UNIVERSITY, priority 2015, dated 2022)
